This note sets out measurements from patent US20070249637A1, “Inhibitors Of Hepatitis C Virus Protease, And Compositions And Treatments Using The Same” (priority 2004, published 2007).

Data set [1] concerns the target T1, full-length NS3-NS4A enzyme (Hepatitis C virus genotype 1a, UniProt P27958).
T1 construct: 3 nM full-length NS3-NS4A enzyme
As to the kind of experiment: HCV protease assay (continuous FRET, full-length enzyme). It counts as biochemical. As to conditions: 3 nM full-length NS3-NS4A, 3 uM depsipeptide FRET substrate S1; competitive inhibition fit. How it is done: HCV protease activity and compound inhibition was monitored using a continuous, fluorescence resonance energy transfer (FRET) assay. Test compounds at various concentrations were added to assay buffer (50 mM MOPS pH 7.5, 50 mM NaCl, 20% glycerol, 0.025% Triton-X 100, 1 mM tris(2-carboxyethyl)phosphine) containing 3 uM depsipeptide FRET substrate S1 (Anaspec) (see Taliani et al. Analytical Biochemistry, 240, 60-67 (1996)) in a white, non-binding 96-well plate (Corning). The reaction was started by the addition of 3 nM full-length NS3-NS4A enzyme. The increase in fluorescence intensity following peptide cleavage was monitored using a Safire fluorescence plate reader (Tecan). The excitation and emission wavelengths were 340 nm and 500 nm, respectively. Inhibition constants (KI) were calculated by non-linear regression analysis using an equation derived for competitive inhibition.

Data set [2] concerns HCV dual reporter subgenomic replicon (B6b cell line). As to the kind of experiment: HCV dual reporter subgenomic replicon assay, Renilla luciferase (antiviral activity). As to conditions: Hepatitis C virus, 72 h; 50% reduction of Renilla luciferase expression, 3 days incubation. The data set is classed as cell-based. The protocol:
The compounds described herein were tested for antiviral activity utilizing a dual-reporter replicon assay as described in U.S. patent application Ser. No. 10/818,075 (the '075 application), filed Apr. 5, 2004. The disclosure of the '075 application is incorporated herein.
(§1) Cell-based antiviral activity was evaluated in the previously described HCV dual reporter subgenomic replicon system (the '075 application). With this system, the effects of a compound on both HCV replication and cell viability can be simultaneously determined by measuring the intracellular levels of two separate reporter proteins. The dicistronic selectable replicon contains the Renilla luciferase gene such that Renilla luciferase activity within stably-transfected cells serves as a marker of HCV replication. The firefly luciferase gene is stably integrated into and expressed by the Huh-7 host cells. Since firefly luciferase activity is dependent upon cellular transcription and translation, firefly luciferase activity serves as an indicator of cell viability.
(§2) The dual reporter selectable replicon cell line (B6b) was maintained in DMEM supplemented with 10% FBS, L-glutamine, non-essential amino acids, penicillin, streptomycin, and selection agents (200 ug/ml G418 and 6 ug/ml blastocidin). On the first day of the experiment, cells were trypsinized, washed, and diluted in medium lacking the selection agents. Cells were transferred to 96-well, black-walled, clear bottom plates at a density of 2×10^4 cells in 150 ul of medium per well. Cells were allowed to settle for 60 to 90 minutes while compounds were being prepared. Each compound was initially diluted to a 4× working stock (2.56% DMSO in tissue culture medium) that was then serially diluted nine times in half log increments in medium with 2.56% DMSO. Fifty microliters of each dilution were then added in triplicate to the plated cells in order to obtain final IX compound concentrations with 0.64% DMSO. Typical testing concentrations ranged from 320 uM to 10 nM. Control wells containing 0.64% DMSO without compound were also included on each plate.
(§3) After 3 days of incubation under humidity at 37° C. with 5% CO2, plates were microscopically examined for compound precipitation and cell death. Tissue culture medium was then aspirated and cells were lysed with 20 ul of 1× Passive Lysis Buffer (Promega, Madison, Wis.). Reporter activity was measured using a MicroBeta Jet 1450 (Perkin Elmer, Boston, Mass.) following sequential 50 ul additions of firefly and Renilla luciferase substrates as described in the manufacturers protocol (Promega). Luciferase activities were expressed as a percentage of the signals observed in the compound-free control wells. The amount of compound required to reduce Renilla luciferase expression by 50% is defined as the 50% effective concentration, or EC50. The amount of compound that reduces firefly luciferase expression by 50% is defined as the 50% cytotoxic concentration, or CC50. A therapeutic index (TI) is calculated by dividing the CC50 by the EC50.
A general note: Replicon systems follow genome replication, usually without infectious particles.

A short description of another data set: in vitro. The data set is classed as cell-based. To be noted: human; 50% reduction of firefly luciferase expression, 3 days incubation; read-out: Replicon CC50. The protocol: as §1, §2, §3

Molecules are shown by their SMILES.

By Ki is commonly meant the dissociation constant of the complex between target and ligand, obtained from inhibition or displacement. Low values mean higher affinity, high ones lower affinity. What is called EC50 is the midpoint of the concentration-response curve. By CC50 is commonly meant the concentration at which the toxic effect on the cells reaches its halfway point.

T1 sequence (P27958 1027-1657): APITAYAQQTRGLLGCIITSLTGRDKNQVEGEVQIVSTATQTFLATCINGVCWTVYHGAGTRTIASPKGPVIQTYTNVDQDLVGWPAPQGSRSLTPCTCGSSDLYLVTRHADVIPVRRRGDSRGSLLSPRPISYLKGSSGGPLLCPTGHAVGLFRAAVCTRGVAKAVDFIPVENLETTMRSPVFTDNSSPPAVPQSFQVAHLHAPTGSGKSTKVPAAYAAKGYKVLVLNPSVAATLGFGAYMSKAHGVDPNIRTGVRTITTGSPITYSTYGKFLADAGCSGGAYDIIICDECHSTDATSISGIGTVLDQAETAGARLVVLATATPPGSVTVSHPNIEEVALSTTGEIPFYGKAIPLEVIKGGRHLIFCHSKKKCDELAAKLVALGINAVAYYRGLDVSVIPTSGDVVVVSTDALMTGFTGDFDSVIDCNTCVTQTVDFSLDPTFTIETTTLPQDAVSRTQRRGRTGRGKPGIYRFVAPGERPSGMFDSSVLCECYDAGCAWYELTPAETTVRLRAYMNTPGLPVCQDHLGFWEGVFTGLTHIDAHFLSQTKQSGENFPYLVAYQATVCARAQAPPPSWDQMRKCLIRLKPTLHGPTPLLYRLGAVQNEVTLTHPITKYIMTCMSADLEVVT
T1 sequence (P27958 1658-1711): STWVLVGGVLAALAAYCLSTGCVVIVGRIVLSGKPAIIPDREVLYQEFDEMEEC

`CC(C)(C)OC(=O)N[C@H]1CCCCC/C=C\[C@@H]2C[C@@]2(C(=O)O)NC(=O)[C@@H]2C[C@@H](Oc3nc(-c4ccccn4)nc4sccc34)CN2C1=O` [Example 29, (2R,6S,12Z,13aS,14aR,16aS)-6-[(tert-butoxycarbonyl)amino]-5,16-dioxo-2-[(2-pyridin-2-ylthieno[2,3-d]pyrimidin-4-yl)oxy]-1,2,3,6,7,8,9,10,11,13a,14,15,16,16a-tetradecahydrocyclopropa[e]pyrrolo[1,2-a][1,4]diazacyclopentadecine-14a(5H)-carboxylic acid] displayed a Ki in data set [1] of 42 nM. In addition, the EC50 in data set [2] was 420 nM. Moreover, the CC50 at 3 days in the data set “in vitro” came to 13000 nM.
Consider `O=C(CC1CC1)N[C@H]1CCCCC/C=C\[C@@H]2C[C@@]2(C(=O)O)NC(=O)[C@@H]2C[C@@H](Oc3nc(-c4ccccn4)nc4sccc34)CN2C1=O` [Example 31, (2R,6S,12Z,13aS,14aR,16aS)-6-[(Cyclopropylacetyl)amino]-5,16-dioxo-2-[(2-pyridin-2-ylthieno[2,3-d]pyrimidin-4-yl)oxy]-1,2,3,6,7,8,9,10,11,13a,14,15,16,16a-tetradecahydrocyclopropa[e]pyrrolo[1,2-a][1,4]diazacyclopentadecine-14a(5H)-carboxylic acid], for which, in data set [1], the affinity corresponds to a Ki of 39 nM. In addition, the EC50 in data set [2] turned out to be 250 nM. In addition, the CC50 at 3 days in “in vitro” came out at 168000 nM.
The matching figures for `O=C(N[C@H]1CCCCC/C=C\[C@@H]2C[C@@]2(C(=O)O)NC(=O)[C@@H]2C[C@@H](Oc3nc(-c4ccccn4)nc4ccsc34)CN2C1=O)OC1CCCC1` [Example 41, (2R,6S,12Z,13aS,14aR,16aS)-6-{[(cyclopentyloxy)carbonyl]amino}-5,16-dioxo-2-[(2-pyridin-2-ylthieno[3,2-d]pyrimidin-4-yl)oxy]-1,2,3,6,7,8,9,10,11,13a,14,15,16,16a-tetradecahydrocyclopropa[e]pyrrolo[1,2-a][1,4]diazacyclopentadecine-14a(5H)-carboxylic acid]: 5.2 nM, 34 nM and 87000 nM.
The matching figures for `O=C(N[C@H]1CCCCC/C=C\[C@@H]2C[C@@]2(C(=O)O)NC(=O)[C@@H]2C[C@@H](Oc3nc(-c4ccccn4)nc4ccsc34)CN2C1=O)OC1CCC1` [Example 43, (2R,6S,12Z,13aS,14aR,16aS)-6-{[(cyclobutyloxy)carbonyl]amino}-5,16-dioxo-2-[(2-pyridin-2-ylthieno[3,2-d]pyrimidin-4-yl)oxy]-1,2,3,6,7,8,9,10,11,13a,14,15,16,16a-tetradecahydrocyclopropa[e]pyrrolo[1,2-a][1,4]diazacyclopentadecine-14a(5H)-carboxylic acid]: 20 nM, 190 nM and above 320000 nM.
The matching figures for `CC(C)(C)OC(=O)N[C@H]1CCCCC/C=C\[C@@H]2C[C@@]2(C(=O)O)NC(=O)[C@@H]2C[C@@H](Oc3nc(-c4ccccn4)nc4ccsc34)CN2C1=O` [Example 44, (2R,6S,12Z,13aS,14aR,16aS)-6-[(Tert-butoxycarbonyl)amino]-5,16-dioxo-2-[(2-pyridin-2-ylthieno[3,2-d]pyrimidin-4-yl)oxy]-1,2,3,6,7,8,9,10,11,13a,14,15,16,16a-tetradecahydrocyclopropa[e]pyrrolo[1,2-a][1,4]diazacyclopentadecine-14a(5H)-carboxylic acid]: 20 nM, 150 nM and 159000 nM.
The molecule `O=C(CC1CC1)N[C@H]1CCCCC/C=C\[C@@H]2C[C@@]2(C(=O)O)NC(=O)[C@@H]2C[C@@H](Oc3nc(-c4ccccn4)nc4ccsc34)CN2C1=O` [Example 46, (2R,6S,12Z,13aS,14aR,16aS)-6-[(Cyclopropylacetyl)amino]-5,16-dioxo-2-[(2-pyridin-2-ylthieno[3,2-d]pyrimidin-4-yl)oxy]-1,2,3,6,7,8,9,10,11,13a,14,15,16,16a-tetradecahydrocyclopropa[e]pyrrolo[1,2-a][1,4]diazacyclopentadecine-14a(5H)-carboxylic acid] returned a Ki in data set [1] of 15 nM. In addition, the response in data set [2] was half-maximal at 92 nM (EC50). The CC50 at 3 days in the data set “in vitro” was above 320000 nM.
The molecule `Cc1cc(-c2nc(O[C@@H]3C[C@H]4C(=O)N[C@]5(C(=O)O)C[C@H]5/C=C\CCCCC[C@H](NC(=O)OC5CCCC5)C(=O)N4C3)c3sccc3n2)n(C)n1` [Example 58, (2R,6S,12Z,13aS,14aR,16aS)-6-{[(Cyclopentyloxy)carbonyl]amino}-2-{[2-(1,3-dimethyl-1H-pyrazol-5-yl)thieno[3,2-d]pyrimidin-4-yl]oxy}-5,16-dioxo-1,2,3,6,7,8,9,10,11,13a,14,15,16,16a-tetradecahydrocyclopropa[e]pyrrolo[1,2-a][1,4]diazacyclopentadecine-14a(5H)-carboxylic acid] showed a Ki in data set [1] of 2.3 nM. In data set [2], this molecule yielded a concentration for a half-maximal effect (EC50) of 62 nM. For the same molecule, the half-maximal cytotoxic concentration (CC50) at 3 days in “in vitro” stood at 216000 nM.
The like results for `Cc1cc(-c2nc(O[C@@H]3C[C@H]4C(=O)N[C@]5(C(=O)O)C[C@H]5/C=C\CCCCC[C@H](NC(=O)OC5CCC5)C(=O)N4C3)c3sccc3n2)n(C)n1` [Example 60, (2R,6S,12Z,13aS,14aR,16aS)-6-{[(Cyclobutyloxy)carbonyl]amino}-2-{[2-(1,3-dimethyl-1H-pyrazol-5-yl)thieno[3,2-d]pyrimidin-4-yl]oxy}-5,16-dioxo-1,2,3,6,7,8,9,10,11,13a,14,15,16,16a-tetradecahydrocyclopropa[e]pyrrolo[1,2-a][1,4]diazacyclopentadecine-14a(5H)-carboxylic acid] were, in that order, 6.7 nM, 700 nM and 222000 nM.
With `Cc1cc(-c2nc(O[C@@H]3C[C@H]4C(=O)N[C@]5(C(=O)O)C[C@H]5/C=C\CCCCC[C@H](NC(=O)OC(C)(C)C)C(=O)N4C3)c3sccc3n2)n(C)n1` [Example 61, (2R,6S,12Z,13aS,14aR,16aS)-6-[(Tert-butoxycarbonyl)amino]-2-{[2-(1,3-dimethyl-1H-pyrazol-5-yl)thieno[3,2-d]pyrimidin-4-yl]oxy}-5,16-dioxo-1,2,3,6,7,8,9,10,11,13a,14,15,16,16a-tetradecahydrocyclopropa[e]pyrrolo[1,2-a][1,4]diazacyclopentadecine-14a(5H)-carboxylic acid], in data set [1], the affinity, expressed as Ki, was 11.3 nM. In data set [2], this molecule gave an EC50 of 870 nM. Also, the CC50 at 3 days in the data set “in vitro” was determined as 244000 nM.
The like results for `Cc1cc(-c2nc(O[C@@H]3C[C@H]4C(=O)N[C@]5(C(=O)O)C[C@H]5/C=C\CCCCC[C@H](NC(=O)CC5CC5)C(=O)N4C3)c3sccc3n2)n(C)n1` [Example 63, (2R,6S,12Z,13aS,14aR,16aS)-6-[(cyclopropylacetyl)amino]-2-{[2-(1,3-dimethyl-1H-pyrazol-5-yl)thieno[3,2-d]pyrimidin-4-yl]oxy}-5,16-dioxo-1,2,3,6,7,8,9,10,11,13a,14,15,16,16a-tetradecahydrocyclopropa[e]pyrrolo[1,2-a][1,4]diazacyclopentadecine-14a(5H)-carboxylic acid] were, in that order, 8.1 nM, 11 nM and above 320000 nM.
